Assay results: US7355042B2, “Treatment of CNS disorders using CNS target modulators” (Hypnion, Inc., priority 2001, dated 2008)
Like-named read-outs stand apart in the source and are kept apart here. Blank lines part the entries; values can stand above or below the compound they belong to.

Experiments:
male Wistar rats = assay: Sleep-wakefulness, locomotor activity and body temperature monitoring (SCORE-2000); type: in vivo, rat; details: for total sleep time post-treatment: 10 mg/kg PO at CT-18, versus methylcellulose vehicle; for body temperature adverse effects / disproportional locomotor inhibition: rats
[1] = target: T1, H1 receptor from bovine cellular membranes (Bos taurus, UniProt P30546); assay: H1 binding assay, [3H]pyrilamine displacement; details: for IC50: Table 6, Series 11, unit inferred
T1 construct: the H1 receptor was from bovine cellular membranes; from tissue
T1 sequence (P30546 whole entry): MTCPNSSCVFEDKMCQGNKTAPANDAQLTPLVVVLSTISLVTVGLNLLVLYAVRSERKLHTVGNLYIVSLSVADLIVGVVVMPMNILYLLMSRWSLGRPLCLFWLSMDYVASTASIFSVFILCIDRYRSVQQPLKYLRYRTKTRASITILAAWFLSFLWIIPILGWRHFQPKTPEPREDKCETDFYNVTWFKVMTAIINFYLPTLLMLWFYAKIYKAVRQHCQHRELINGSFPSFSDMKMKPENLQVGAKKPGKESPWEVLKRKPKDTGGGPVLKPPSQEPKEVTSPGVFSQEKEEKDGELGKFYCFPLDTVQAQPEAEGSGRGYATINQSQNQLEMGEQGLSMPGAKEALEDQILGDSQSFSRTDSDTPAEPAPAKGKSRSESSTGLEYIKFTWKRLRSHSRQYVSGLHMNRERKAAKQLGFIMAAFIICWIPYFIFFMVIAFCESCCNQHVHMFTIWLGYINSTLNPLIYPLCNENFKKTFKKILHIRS

[2] = target: T2, human recombinant M1 muscarinic receptor expressed in CHO cells (Homo sapiens, UniProt P11229); assay: M1 binding assay (human recombinant), [3H]-scopolamine N-methyl chloride
T2 construct: expressed in transfected cells; host or cells: CHO cells
T2 sequence (P11229 1-460): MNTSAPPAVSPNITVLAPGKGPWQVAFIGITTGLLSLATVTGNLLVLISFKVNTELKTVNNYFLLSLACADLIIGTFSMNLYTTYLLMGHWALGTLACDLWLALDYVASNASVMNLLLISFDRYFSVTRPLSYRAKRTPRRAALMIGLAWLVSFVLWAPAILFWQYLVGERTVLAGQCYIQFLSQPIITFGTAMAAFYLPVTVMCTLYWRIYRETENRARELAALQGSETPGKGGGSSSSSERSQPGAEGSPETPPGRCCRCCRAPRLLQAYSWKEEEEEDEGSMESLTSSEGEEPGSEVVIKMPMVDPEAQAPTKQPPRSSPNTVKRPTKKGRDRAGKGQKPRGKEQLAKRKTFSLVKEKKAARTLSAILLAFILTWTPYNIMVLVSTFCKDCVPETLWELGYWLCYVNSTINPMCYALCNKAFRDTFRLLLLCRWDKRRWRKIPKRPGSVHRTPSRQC

[3] = target: T3, human recombinant M3 muscarinic receptor expressed in CHO cells (Homo sapiens, UniProt P20309); assay: M3 binding assay (human recombinant)
T3 construct: expressed in transfected cells; host or cells: CHO cells
T3 sequence (P20309 whole entry): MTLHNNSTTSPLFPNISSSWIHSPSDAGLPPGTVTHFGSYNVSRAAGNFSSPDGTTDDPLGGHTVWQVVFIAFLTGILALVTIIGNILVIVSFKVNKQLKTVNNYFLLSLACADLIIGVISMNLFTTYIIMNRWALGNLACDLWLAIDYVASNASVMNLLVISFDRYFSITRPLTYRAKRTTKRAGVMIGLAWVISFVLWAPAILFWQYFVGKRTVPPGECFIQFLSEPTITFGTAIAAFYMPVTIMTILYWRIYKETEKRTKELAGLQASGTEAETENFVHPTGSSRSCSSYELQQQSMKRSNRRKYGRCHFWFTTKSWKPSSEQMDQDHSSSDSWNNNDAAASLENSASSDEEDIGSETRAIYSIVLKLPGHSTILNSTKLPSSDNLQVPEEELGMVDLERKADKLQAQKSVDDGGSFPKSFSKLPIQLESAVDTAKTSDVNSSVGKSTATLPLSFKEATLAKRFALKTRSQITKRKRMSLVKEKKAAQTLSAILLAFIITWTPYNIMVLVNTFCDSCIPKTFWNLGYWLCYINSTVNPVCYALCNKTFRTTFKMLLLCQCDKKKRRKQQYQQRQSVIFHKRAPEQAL

[4] = target: T4, human recombinant M2 muscarinic receptor expressed in CHO cells (Homo sapiens, UniProt P08172); assay: M2 binding assay (human recombinant); details: Examples 15-17; unit inferred; read-out: binding affinity for cholinergic (muscarinic) receptor M2
T4 construct: expressed in transfected cells; host or cells: CHO cells
T4 sequence (P08172 1-466): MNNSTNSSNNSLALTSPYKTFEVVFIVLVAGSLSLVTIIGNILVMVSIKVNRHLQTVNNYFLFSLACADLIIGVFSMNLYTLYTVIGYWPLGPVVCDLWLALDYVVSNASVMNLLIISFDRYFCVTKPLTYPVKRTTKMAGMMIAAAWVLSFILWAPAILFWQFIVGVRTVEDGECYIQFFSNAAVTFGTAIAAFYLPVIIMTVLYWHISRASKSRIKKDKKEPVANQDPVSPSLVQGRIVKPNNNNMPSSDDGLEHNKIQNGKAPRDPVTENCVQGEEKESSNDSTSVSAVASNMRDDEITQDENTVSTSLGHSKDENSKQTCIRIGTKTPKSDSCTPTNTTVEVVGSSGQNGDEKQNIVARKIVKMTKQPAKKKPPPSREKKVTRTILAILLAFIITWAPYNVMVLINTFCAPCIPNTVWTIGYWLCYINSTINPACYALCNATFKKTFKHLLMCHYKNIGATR

[5] = 30 mg/kg and 10 mg/kg, intraperitoneal bolus at CT-18
[6] = intraperitoneal at CT-18, 11f 10 or 30 mg/kg, 6f and 15f 30 mg/kg
[7] = Examples 15-17, unit inferred, read-out: binding affinity for cholinergic (muscarinic) receptor M1
[8] = Examples 15-17, read-out: Ki, H1 binding assay
[9] = Examples 15-17, unit inferred, read-out: binding affinity for cholinergic (muscarinic) receptor M3
[10] = 10 mg/kg PO at CT-18, male Wistar rats

Compound: O=C(O)CCN1CCC(OC(c2ccccc2)c2ccccc2)CC1 [Compound 6a, 3-[4-(diphenylmethoxy)piperidin-1-yl]propanoic acid]
Average Bout-Length (male Wistar rats; 30 mg/kg PO at CT-18): 7.0 min | Duration (male Wistar rats; 30 mg/kg PO at CT-18): 5 h | Maximum Bout Length (male Wistar rats; 30 mg/kg PO at CT-18): 12.8 min | NREM Accum. (male Wistar rats; 30 mg/kg PO at CT-18): 26.5 min | NREM Peak (%/hr) (male Wistar rats; 30 mg/kg PO at CT-18): 56.4 %/hr | Onset (male Wistar rats; 30 mg/kg PO at CT-18): 65 min

Compound: O=C(O)CCN1CCC(=C(c2ccccc2)c2ccccc2)CC1 [Compound 11a]
IC50 [1]: 308 nM | Average Bout-Length (male Wistar rats; 30 mg/kg PO at CT-18): 11.2 min | Duration (male Wistar rats; 30 mg/kg PO at CT-18): 6 h | Maximum Bout Length (male Wistar rats; 30 mg/kg PO at CT-18): 18.7 min | NREM Accum. (male Wistar rats; 30 mg/kg PO at CT-18): 41.2 min | NREM Peak (%/hr) (male Wistar rats; 30 mg/kg PO at CT-18): 67.3 %/hr | Onset (male Wistar rats; 30 mg/kg PO at CT-18): 85 min

Compound: CC(C)OC(=O)CCN1CCC(=C(c2ccccc2)c2ccccc2)CC1 [Compound 11d, Isopropyl 3-[4-(diphenylmethylidene)piperidin-1-yl]propanoate]
IC50 [1]: 378 nM | Average Bout-Length (male Wistar rats; 30 mg/kg PO at CT-18): 11.0 min | Duration (male Wistar rats; 30 mg/kg PO at CT-18): 6 h | Maximum Bout Length (male Wistar rats; 30 mg/kg PO at CT-18): 20.1 min | NREM Accum. (male Wistar rats; 30 mg/kg PO at CT-18): 55.5 min | NREM Peak (%/hr) (male Wistar rats; 30 mg/kg PO at CT-18): 58.5 %/hr | Onset (male Wistar rats; 30 mg/kg PO at CT-18): 135 min

Compound: O=C(O)CN1CCC(C(c2ccccc2)c2ccccc2)CC1 [Compound 16a, [4-(Diphenylmethyl)piperidin-1-yl]ethanoic acid]
Ki ([2]; Table 7, human recombinant, read-out: Receptor Binding Data (Ki nM) M1): > 10000 nM | Ki ([1]; Receptor Binding Data (Ki nM) H1, Table 7): 43.9 nM | Ki [3]: > 10000 nM | Average Bout-Length (male Wistar rats; 30 mg/kg PO at CT-18): 5.4 min | Duration (male Wistar rats; 30 mg/kg PO at CT-18): 5 h | Maximum Bout Length (male Wistar rats; 30 mg/kg PO at CT-18): 11.8 min | NREM Accum. (male Wistar rats; 30 mg/kg PO at CT-18): 20.7 min | NREM Peak (%/hr) (male Wistar rats; 30 mg/kg PO at CT-18): 57.9 %/hr | Onset (male Wistar rats; 30 mg/kg PO at CT-18): 180 min

Compound: Cl.O=C(O)CCCN1CCC(OC(c2ccccc2)c2ccccc2)CC1 [Compound 53a]
Average Bout-Length (male Wistar rats; 30 mg/kg PO at CT-18): 4.3 min | Duration (male Wistar rats; 30 mg/kg PO at CT-18): 4 h | Maximum Bout Length (male Wistar rats; 30 mg/kg PO at CT-18): 9.1 min | NREM Accum. (male Wistar rats; 30 mg/kg PO at CT-18): 17.4 min | NREM Peak (%/hr) (male Wistar rats; 30 mg/kg PO at CT-18): 49.2 %/hr | Onset (male Wistar rats; 30 mg/kg PO at CT-18): 30 min

Compound: O=C(O)CCCN1CCC(=C2c3ccccc3COc3ccccc32)CC1 [Compound 73a]
Average Bout-Length (male Wistar rats; 30 mg/kg PO at CT-18): 14.5 min | Duration (hrs) (male Wistar rats; 30 mg/kg PO at CT-18): 5-6+ hrs | Maximum Bout Length (male Wistar rats; 30 mg/kg PO at CT-18): 27.6 min | NREM Accum. (male Wistar rats; 30 mg/kg PO at CT-18): 47.3 min | NREM Peak (%/hr) (male Wistar rats; 30 mg/kg PO at CT-18): 62.2 %/hr | Onset (male Wistar rats; 30 mg/kg PO at CT-18): 45 min

Compound: CC(C)(CN1CCC(=C2c3ccccc3COc3ccccc32)CC1)C(=O)O [Compound 74a]
Average Bout-Length (male Wistar rats; 30 mg/kg PO at CT-18): 9.9 min | Duration (male Wistar rats; 30 mg/kg PO at CT-18): 5 to 6 h | Maximum Bout Length (male Wistar rats; 30 mg/kg PO at CT-18): 22.3 min | NREM Accum. (male Wistar rats; 30 mg/kg PO at CT-18): 43.4 min | NREM Peak (%/hr) (male Wistar rats; 30 mg/kg PO at CT-18): 64.4 %/hr | Onset (male Wistar rats; 30 mg/kg PO at CT-18): 70 to 80 min

Compound: CC(C)(CCN1CCC(=C2c3ccccc3COc3ccccc32)CC1)C(=O)O [Compound 75a]
Average Bout-Length (male Wistar rats; 30 mg/kg PO at CT-18): 6.8 min | Duration (male Wistar rats; 30 mg/kg PO at CT-18): 4 h | Maximum Bout Length (male Wistar rats; 30 mg/kg PO at CT-18): 13.6 min | NREM Accum. (male Wistar rats; 30 mg/kg PO at CT-18): 33.9 min | NREM Peak (%/hr) (male Wistar rats; 30 mg/kg PO at CT-18): 58.8 %/hr | Onset (male Wistar rats; 30 mg/kg PO at CT-18): 70 to 85 min | Average Bout-Length (male Wistar rats; 45 mg/kg PO at CT-18): 10.8 min | Duration (male Wistar rats; 45 mg/kg PO at CT-18): 5 h | Maximum Bout Length (male Wistar rats; 45 mg/kg PO at CT-18): 19.4 min | NREM Accum. (male Wistar rats; 45 mg/kg PO at CT-18): 33.9 min | NREM Peak (%/hr) (male Wistar rats; 45 mg/kg PO at CT-18): 58.2 %/hr | Onset (male Wistar rats; 45 mg/kg PO at CT-18): 70 to 85 min

Second part, led by results:

IC50 [1]: 718 nM
Compound: CC(C)COC(=O)CCN1CCC(=C(c2ccccc2)c2ccccc2)CC1 [Compound 11e, Isobutyl 3-[4-(diphenylmethylidene)piperidin-1-yl]propanoate]
Average Bout-Length (male Wistar rats; 30 mg/kg PO at CT-18): 8.3 min | Duration (male Wistar rats; 30 mg/kg PO at CT-18): 6 h | Maximum Bout Length (male Wistar rats; 30 mg/kg PO at CT-18): 19.1 min | NREM Accum. (male Wistar rats; 30 mg/kg PO at CT-18): 49.6 min | NREM Peak (%/hr) (male Wistar rats; 30 mg/kg PO at CT-18): 59.6 %/hr | Onset (male Wistar rats; 30 mg/kg PO at CT-18): 80 min

IC50 [1]: 1070 nM
Compound: O=C(CCN1CCC(=C(c2ccccc2)c2ccccc2)CC1)OC1CCCC1 [Compound 11f, Cyclopentyl 3-[4-(diphenylmethylidene)piperidin-1-yl]propanoate]
cumulative effect on total sleep time (TST) during the initial 5 hours post-treatment, relative to baseline (male Wistar rats; 30 mg/kg IP versus Zolpidem 10 mg/kg): induced more TST than Zolpidem | sleep continuity, as assessed by sleep bout length (male Wistar rats; [5]): increased sleep continuity | time post-treatment over which total sleep time was increased (male Wistar rats; [5]): 3 h | total sleep time (male Wistar rats; [5]): significantly increased total sleep time | REM sleep inhibition (male Wistar rats; [6]): did not, however, produce REM sleep inhibition or rebound insomnia | rebound insomnia (male Wistar rats; [6]): did not, however, produce REM sleep inhibition or rebound insomnia

Ki [2, 7]: > 10000 nM | Ki [1, 8]: 23.9 nM | Ki [3, 9]: > 10000 nM | Ki [4]: > 10000 nM
Compound: CC(C)(CCN1CCN(C2=Nc3ccccc3Oc3ccc(Cl)cc32)CC1)C(=O)O [Compound SS1]
sleep continuity, as assessed by sleep bout length (male Wistar rats; [10]): increased sleep continuity | total sleep time post-treatment (male Wistar rats): significantly increased total sleep time | body temperature adverse effects (male Wistar rats): no evidence of causing disproportional locomotor inhibition or body temperature adverse effects | disproportional locomotor inhibition (male Wistar rats): no evidence of causing disproportional locomotor inhibition or body temperature adverse effects

Ki [2, 7]: > 10000 nM | Ki [1, 8]: 23.4 nM | Ki [3, 9]: > 10000 nM | Ki [4]: > 10000 nM
Compound: CC(C)(CN1CCN(C2=Nc3cc(Cl)ccc3Nc3ccccc32)CC1)C(=O)O [Compound SS2]
sleep continuity, as assessed by sleep bout length (male Wistar rats; [10]): increased sleep continuity | total sleep time post-treatment (male Wistar rats): significantly increased total sleep time | body temperature adverse effects (male Wistar rats): no evidence of causing disproportional locomotor inhibition or body temperature adverse effects | disproportional locomotor inhibition (male Wistar rats): no evidence of causing disproportional locomotor inhibition or body temperature adverse effects

Ki [1, 8]: < 500 nM | REM sleep inhibition (male Wistar rats; functional criteria list): does not appreciably inhibit REM sleep
Compound: Cl.O=C(O)CCN1CCC(=C(c2ccccc2)c2ccccc2)CC1 [Compound U1]
sleep continuity, as assessed by sleep bout length (male Wistar rats; [10]): increased sleep continuity | total sleep time post-treatment (male Wistar rats): significantly increased total sleep time | net longest sleep bout post treatment (male Wistar rats; adjusted using a baseline value at least 24 hours prior, functional criteria list): greater than or equal to 3 minutes | average sleep bout (male Wistar rats; at absolute peak, functional criteria list): greater than 5 minutes | nonREM peak time value (male Wistar rats; by the third hour after administration, functional criteria list): greater than 55 % nonREM sleep per hour | cumulative total increase in nonREM sleep (male Wistar rats; doses that produce maximum sleep consolidation, functional criteria list): not less than 20 minutes | locomotor activity inhibition relative to the normal effects of sleep (male Wistar rats; functional criteria list): does not disproportionately inhibit locomotor activity | longest sleep bout (male Wistar rats; functional criteria list): greater than 13 minutes | rebound insomnia (male Wistar rats; functional criteria list): does not produce appreciable amounts of rebound insomnia | body temperature adverse effects (male Wistar rats): no evidence of causing disproportional locomotor inhibition or body temperature adverse effects | disproportional locomotor inhibition (male Wistar rats): no evidence of causing disproportional locomotor inhibition or body temperature adverse effects
